Columns and labels:
[1] = Nicotine-lethality inhibiting effect in mice, oral (method of Stone); assay type: in vivo; details: mouse, in vivo, LD50 and ED50 in mice, read-out: Therapeutic index
Protocol: (§1) The nicotine-lethality inhibiting effect was determined on mice by the method of Stone [C. A. Stone et al.: Arch. Intern.

nicotine-lethality = experiment: as above; assay type: in vivo; details: Mus musculus, nicotine-lethality inhibition, mice, groups of ten animals
Protocol: as §1

in vivo = details: mouse, mice, oral
isolated rat ileum = experiment: Spasmolytic effect on smooth muscle, isolated rat ileum (method of Brock), papaverine as reference; details: relative to papaverine
Protocol: The spasmolytic effect on smooth muscle was determined on isolated rat ileum according to the method of Brock et al. [H. Brock, J. Ceks, D. Lorenz: Arch. Exper. Path. u. Pharmacol. 215, 492/1952/] by using papaverine as the reference substance. In order to characterize the efficiency of the individual compounds their relative effect with respect to papaverine are enumerated in Table 2 below.

[2] = tested on: ischiadic nerve (N. ischiadieus); experiment: Local anaesthetizing effect on the ischiadic nerve of rats (method of Truant), Lidocaine as reference; assay type: in vivo; details: for Relative efficiency: local anaesthesia, relative to Lidocaine
Protocol: The local anaesthetizing effect was investigated on the ischiadic nerve (N. ischiadieus) of rats by the method of Truant [A. P. Truant, d'Amato cited in A. P. Truant, S. Wiedling: Acta Chirurg. Scand. 116, 351 (1958)], by using Lidocaine as the reference substance. The number of animals showing the characteristic motoric paralysis and the duration of the effect were recorded. The relative efficiency with respect to Lidocaine and the duration of the effect observed on applying a 0.25% and 0.5% concentration are presented in Table 3.

SMILES | selectivity ratio [1] | ED50 (nicotine-lethality) [mg/kg] | LD50 (in vivo) [mg/kg] | Relative efficiency (isolated rat ileum) | Duration of effect ([2]; 0.25% concentration) [min] | Duration of effect ([2]; 0.5% concentration) [min] | Relative efficiency [2]
CC(CON=C1CCCCCCCCCCC1)CN(C)C (racemic) [Example 4, D,L-1-(3'-Dimethylamino-2'-methylpropoxyimino)cyclododecane] | 14.8 | 46 | 680 | 4.1 | 32 | 105 | 0.63
OC(CCN1CCCCC1)(c1ccccc1)C1CCCCC1 (stereo not shown) [Artane, 1-cyclohexyl-1-phenyl-3-piperidino-propane-1-ol, reference compound] | – | 40 | – | – | – | – | –
CN(C)CCCON=C1CCCCCCCCCCC1 [Example 1, 1-(Dimethylamino-propoxyimino)cyclododecane] | 14.4 | 39 | 560 | 1.4 | 45 | 95 | 0.77
CN(C)CCON=C1CCCCCCCCCCC1 [Example 2, 1-(Dimethylamino-ethoxyimino)cyclododecane] | 27.9 | 28 | 780 | – | 23 | 57 | 0.67
CC(C)N(CCON=C1CCCCCCCCCCC1)C(C)C [Example 5, 1-(Diisopropylamino-ethoxyimino)cyclododecane] | 80 | 10 | 800 | – | 31 | 60 | 0.71
c1ccc(CN2CCN(CCCON=C3CCCCCCCCCCC3)CC2)cc1 [Example 6, 1-(N-Benzylpiperazinyl-propoxyimino)cyclododecane] | 5 | 180 | 900 | 0.9 | 60 | 134 | 0.52
CN1CCN(CCCON=C2CCCCCCCCCCC2)CC1 [Example 7, 1-(N-methylpiperazinyl-propoxyimino)cyclododecane] | 16.2 | 68 | 1100 | – | – | – | –
CCN(CC)CCCON=C1CCCCCCCCCCC1 [Example 10, 1-(Diethylamino-propoxyimino)cyclododecane] | – | – | – | 2.9 | 76 | 104 | 2.00
CCN(CC)CC(C)CON=C1CCCCCCCCCCC1 (stereo not shown) [Example 11, 1-(3'-Diethylamino-2'-methyl-propoxyimino)cyclododecane] | 5 | 80 | 400 | 2.6 | 151 | 240 | 1.86
CC(C)N(CCCON=C1CCCCCCCCCCC1)C(C)C [Example 12, 1-(Diisopropylamino-propoxyimino)cyclododecane] | 5 | 130 | 650 | – | 77 | 240 | 1.68
CCN(CC)CC(=O)Nc1c(C)cccc1C [Lidocaine, reference compound] | – | – | – | – | 24 | 28 | 1.0
COc1ccc(Cc2nccc3cc(OC)c(OC)cc23)cc1OC [Papaverine, reference compound] | – | – | – | 1.0 | – | – | –

Reference: patent US4285942A, “Cyclododecanone oximes” (Egyt Gyogyszervegyeszeti Gyar, priority 1978, dated 1981)
